Measured values as given in PMC3210109, “Flexible catalytic site conformations implicated in modulation of HIV-1 protease autoprocessing reactions” (Retrovirology, 2011).

How the values were obtained:
[1] = system: in vitro translated Gag-Pol precursor; design: method as in PMID 15280456; settings: ref [21]; cited from earlier work
[2] = molecular target: T1, PR^NL H69D precursor (Human immunodeficiency virus type 1 group M subtype B, UniProt P12497, H557D); type: cell-based, HIV-1; settings: darunavir, Figure 2F
T1 construct: expressed in transfected cells; host or cells: HEK293T
Description: (§1) HEK293T cells (ATCC, Manassas, VA) were maintained in DMEM containing 10% fetal bovine serum and penicillin/streptomycin (0.6% Penicillin G sodium salt, 1.0% Streptomycin sulfate, 0.85% NaCl). Plasmid DNA was transfected into HEK293T cells using calcium phosphate as previously described [25, 46]. Briefly, HEK293T cells were seeded in 12-well plates the day before transfection to achieve 50~60% confluence at the time of transfection. About 1 h prior to transfection, chloroquine was added into each well to a final concentration of 25 μM. A total of 0.5 μg plasmid DNA in 65.7 μl H2O was mixed with 9.3 μl of 2 M CaCl2. Then 75 μl of 2xHBS (50 mM Hepes, pH7.04~7.05, 10 mM KCl, 12 mM Dextrose, 280 mM NaCl, 1.5 mM Na2HPO4) was added to the DNA-Ca mixture followed by gentle agitation. The resulting mixture was directly added drop-wise to each well. […] After 7-8 h incubation at 37°C, 5% CO2, the transfection medium was replaced with fresh chloroquine-free medium containing the corresponding protease inhibitors. […]
(§2) For quantification of protein intensity, Western blot images captured by an Odyssey infrared dual laser scanning unit were analyzed using TotalLab software (Nonlinear Dynamics Inc.). The total pixel volume of each band was quantified and normalized; the highest value was arbitrarily set at 1000.

[3] = system: HIV-1 infected cells (p24 production); settings: ref [40],[41], read-out: IC50 to inhibit the production of p24; cited from earlier work
[4] = system: embedded protease of GST-M2-PR (tagless precursor); test: P site cleavage reaction, tagless precursor GST-M2-PR; type: cell-based, HIV-1; design: dose or concentration left out as unconfirmed; settings: […] nM darunavir
Excerpt: To examine whether different amino acid sequences fused to the C-terminus of PR influence protease autoprocessing, we engineered a panel of fusion precursors carrying different C-terminal epitopes (Figure 5A). A truncated version of M2 p6* (Figure 2A) was used to allow focused examination of the P site cleavage reaction. We also constructed GST-M2-PR, a precursor lacking any C-terminal epitope, to serve as a reference control.
HEK293T cells (ATCC, Manassas, VA) were maintained in DMEM containing 10% fetal bovine serum and penicillin/streptomycin (0.6% Penicillin G sodium salt, 1.0% Streptomycin sulfate, 0.85% NaCl). Plasmid DNA was transfected into HEK293T cells using calcium phosphate as previously described [25, 46]. Briefly, HEK293T cells were seeded in 12-well plates the day before transfection to achieve 50~60% confluence at the time of transfection. About 1 h prior to transfection, chloroquine was added into each well to a final concentration of 25 μM. A total of 0.5 μg plasmid DNA in 65.7 μl H2O was mixed with 9.3 μl of 2 M CaCl2. […]
as §2

[5] = system: mature protease; settings: ref [40],[41]; cited from earlier work
[6] = molecular target: embedded protease of GST-p6*-PR^NL-HA / GST-M1-PR^NL-HA fusion precursor (proximal site) (Human immunodeficiency virus type 1, UniProt P12497); test: P site cleavage reaction mediated by the embedded protease, PR^NL fusion precursor, HEK293T cells; type: cell-based, HIV-1; settings: darunavir; embedded vs released protease
Description: as §1, §2

## CC(C)c1nc(CN(C)C(=O)N[C@H](C(=O)N[C@@H](Cc2ccccc2)C[C@H](O)[C@H](Cc2ccccc2)NC(=O)OCc2cncs2)C(C)C)cs1 [ritonavir]
[1]
  sensitivity of Gag-Pol precursor to inhibition compared to the mature protease: significantly low sensitivity

## CC(C)CN(C[C@@H](O)[C@H](Cc1ccccc1)NC(=O)O[C@H]1CO[C@H]2OCC[C@H]21)S(=O)(=O)c1ccc(N)cc1 [darunavir]
[2]
  suppression of autoprocessing reactions mediated by the embedded H69D PR: not suppressed
[2]; PR^NL H69D precursor
  effect of treatment on the amount of the released proteases (H69D): did not increase
[3]
  IC50: ~5 nM
[4]
  suppression of the cleavage reaction, tagless precursor: not suppressed
[5]
  affinity for the catalytic site of the mature protease: low nanomolar
[6]
  embedded protease less sensitive to inhibition than the corresponding released protease: at least 100 fold
